{"source": "the supplement of paper PMC10307832", "experiment_in_all_cases": "relative viability (nuclei count vs DMSO), 5 days (fraction); higher = more cells survive", "key": {"[1]": {"compound": "CC1=CC=C(C=C1)C(=O)CN2C3=C(CCCC3)SC2=N [Pifithrin_alpha] + Cc1nc(NC(=O)N2CCC[C@H]2C(N)=O)sc1-c1ccnc(C(C)(C)C(F)(F)F)c1 [Alpelisib] (partner 2 µM)", "summary_of_the_method": "(§1)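 Lung cancer cell lines were seeded in 1536-well plates and dosed by pin tool the next day, with either a single drug or a fixed anchor-drug dose combined with five library-drug doses (not always all listed) spaced in √10 steps. Five days later, one step fixed the cells and stained their nuclei (final 0.05% Triton X-100, 1% formaldehyde, 1 ug/ml Hoechst), and nuclei were counted on 4× images. Relative viability is the nuclei count in treated wells divided by the count in vehicle wells, and each value is the median of duplicate plates.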"}, "[2]": {"compound": "CNC(=O)c1ccccc1Sc1ccc2c(/C=C/c3ccccn3)n[nH]c2c1 [Axitinib] + CC(=O)c1c(C)c2cnc(Nc3ccc(N4CCNCC4)cn3)nc2n(C2CCCC2)c1=O [Palbociclib] (partner 0.5 µM)", "summary_of_the_method": "as §1"}, "[3]": {"compound": "CNC(=O)c1ccccc1Sc1ccc2c(/C=C/c3ccccn3)n[nH]c2c1 [Axitinib] + COc1cccc2cc(-c3nc([C@H]4CC[C@H](C(=O)O)CC4)n4ncnc(N)c34)[nH]c12 [OSI-027] (partner 0.5 µM)", "summary_of_the_method": "as §1"}, "[4]": {"compound": "CNC(=O)c1ccccc1Sc1ccc2c(/C=C/c3ccccn3)n[nH]c2c1 [Axitinib] + Nc1nc2[nH]cc(CCc3ccc(C(=O)N[C@@H](CCC(=O)O)C(=O)O)cc3)c2c(=O)[nH]1 [Pemetrexed] (partner 0.2 µM)", "summary_of_the_method": "as §1"}}}
{"cell line": "NCI-H650", "values": [{"measurement": "relative viability", "setting": "[1]; first compound 3.162 µM", "value": 1.12}, {"measurement": "relative viability", "setting": "[1]; first compound 10 µM", "value": 1.13}, {"measurement": "relative viability", "setting": "[1]; first compound 31.62 µM", "value": 0.755}, {"measurement": "relative viability", "setting": "[1]; first compound 100 µM", "value": 1.09}, {"measurement": "relative viability", "setting": "[2]; first compound 0.005 µM", "value": 0.327}, {"measurement": "relative viability", "setting": "[2]; first compound 0.01581 µM", "value": 0.342}, {"measurement": "relative viability", "setting": "[2]; first compound 0.05 µM", "value": 0.312}, {"measurement": "relative viability", "setting": "[2]; first compound 0.1581 µM", "value": 0.321}, {"measurement": "relative viability", "setting": "[2]; first compound 0.5 µM", "value": 0.325}, {"measurement": "relative viability", "setting": "[3]; first compound 0.005 µM", "value": 0.533}, {"measurement": "relative viability", "setting": "[3]; first compound 0.01581 µM", "value": 0.486}, {"measurement": "relative viability", "setting": "[3]; first compound 0.05 µM", "value": 0.517}, {"measurement": "relative viability", "setting": "[3]; first compound 0.1581 µM", "value": 0.571}, {"measurement": "relative viability", "setting": "[3]; first compound 0.5 µM", "value": 0.584}, {"measurement": "relative viability", "setting": "[4]; first compound 0.005 µM", "value": 1.09}, {"measurement": "relative viability", "setting": "[4]; first compound 0.01581 µM", "value": 0.808}, {"measurement": "relative viability", "setting": "[4]; first compound 0.05 µM", "value": 1.04}, {"measurement": "relative viability", "setting": "[4]; first compound 0.1581 µM", "value": 1.02}, {"measurement": "relative viability", "setting": "[4]; first compound 0.5 µM", "value": 0.855}]}
